These results are taken from PubChem BioAssay AID1996.

Values after ≈ are worked out from the molar mass of the structure shown.

Broadly, the solubility (kinetic) is the concentration staying in solution when a stock, usually in DMSO, is diluted into the medium.

For this series the following is noted: buffer; pH 7.4; 200.0 µM.
Consider `Cc1ccc(S(=O)(=O)NCCC2=CCCCC2)cc1C(N)=O`, for which the kinetic solubility was > 48.4 µg/mL.

`CC1CCN(CC(=O)Nc2nc(-c3ccccc3)cs2)CC1`: the solubility (kinetic) turned out to be 12.9 µg/mL (≈ 40.9 µM).

Regarding `CC(=O)c1sc(-c2ccccc2)cc1NS(=O)(=O)c1ccc(C)cc1`, the solubility (kinetic) came out at 1.1 µg/mL (≈ 2.96 µM).

As for `c1ccc(CCNc2ncnc3sccc23)nc1`, the solubility (kinetic) is > 38.4 µg/mL.

For `Cc1onc(C(=O)Nc2cccc(C(F)(F)F)c2)c1[N+](=O)[O-]`, the solubility (kinetic) turned out to be 32.4 µg/mL (≈ 103 µM).

Consider `NC(=S)Nc1cccc(-c2n[nH]c(=S)o2)c1`, for which the kinetic solubility was > 37.8 µg/mL.

For `CC(=O)Nc1ccc(/C=C/c2ccc3c([N+](=O)[O-])cccc3n2)cc1`, the kinetic solubility was found to be 16.2 µg/mL (≈ 48.6 µM).

As to `CCOc1cc(C=O)ccc1OCC(=O)N1CCCC1`, the kinetic solubility was > 41.6 µg/mL.

On to `NS(=O)(=O)c1ccc(NC2=CC(=O)C(=O)c3ccccc32)cc1`, for which the kinetic solubility was found to be 13.6 µg/mL (≈ 41.4 µM).

With `CCCCn1c(O)c(/C=C2/C=CC=N2)c(=O)[nH]c1=O`, the kinetic solubility was found to be 5.1 µg/mL (≈ 19.5 µM).

Take `O=[N+]([O-])c1ccc(OCC2CC(c3ccccc3)=NO2)cc1` (configuration not stated): the kinetic solubility is < 0.3 µg/mL.

The compound `O=S(=O)(Nc1ccc(-c2nc3cccnc3s2)cc1)c1ccccc1F` came in with a kinetic solubility of 0.8 µg/mL (≈ 2.08 µM).

Take `CNc1cc(C)c(C#N)c2nc3ccccc3n12`: the kinetic solubility worked out at 2.6 µg/mL (≈ 11 µM).

In the case of `Cc1ccc(NC(=O)CNC(=O)Cc2cccc3ccccc23)nc1`, the solubility (kinetic) stood at 11.6 µg/mL (≈ 34.8 µM).

In the case of `COc1ccc(S(=O)(=O)Nc2cccc(F)c2)cc1C`, the solubility (kinetic) was > 44.3 µg/mL.

In the case of `O=C(NCCCn1ccnc1)c1ccc2nccnc2c1`, the solubility (kinetic) was > 42.2 µg/mL.

Regarding `Cc1ccc(S(=O)(=O)N(C)CC(=O)Nc2cccnc2)cc1`, the kinetic solubility stood at 41.5 µg/mL (≈ 130 µM).

`N#C/C(=C\c1ccccc1)c1ccccn1` returned a solubility (kinetic) of 8.6 µg/mL (≈ 41.7 µM).

Regarding `O=C(CN1CCN(c2cccc(Cl)c2)CC1)NCc1ccccc1`, the kinetic solubility was 42.5 µg/mL (≈ 124 µM).

Regarding `NC(=O)c1ccsc1NC(=O)COC(=O)c1ccccn1`, the solubility (kinetic) is > 45.8 µg/mL.

As to `COCCn1c(C)cc(O)c(C(=O)Nc2cccc(Cl)c2)c1=O`, the kinetic solubility is < 0.4 µg/mL.

With `COc1ccc2[nH]c(C(=O)N(C)Cc3ccccc3)c(C)c2c1`, the solubility (kinetic) amounted to 9.1 µg/mL (≈ 29.5 µM).

On to `Cc1cnc([N+](=O)[O-])n1CCOC(=O)NC(=O)c1ccccc1`, for which the solubility (kinetic) came out at 44.4 µg/mL (≈ 139 µM).

On to `CCN(C(=O)COc1ccc(C(C)=O)cc1)c1cccc2ccccc12`, for which the kinetic solubility was 43.2 µg/mL (≈ 124 µM).

With `O=C(NCC(=O)N1CCCCCC1)c1ccc(Cl)cc1`, the solubility (kinetic) was > 44.2 µg/mL.

The compound `COc1ccccc1CC(=O)Nc1ncc(C)s1` returned a solubility (kinetic) of 8.4 µg/mL (≈ 32 µM).

`Cc1ccc(C(=O)NCCCNC(=O)c2cccnc2)cc1`: the kinetic solubility is > 44.6 µg/mL.

As to `O=C(O)/C=C/C(=O)Nc1c(F)cccc1F`, the kinetic solubility came to 27.1 µg/mL (≈ 119 µM).

Compound `COC(=O)c1sccc1NC(=S)Nc1cccc(F)c1` returned a kinetic solubility of 34.4 µg/mL (≈ 111 µM).

`COc1ccc(Nc2nc(Cl)c(C=O)s2)cc1` returned a solubility (kinetic) of 11.1 µg/mL (≈ 41.3 µM).

Take `CC(NC(=O)C1CC1)C(c1cccs1)N1CCOCC1` (configuration not stated): the solubility (kinetic) is > 44.2 µg/mL.

As to `Cn1c(C2CCCCC2)nc2cc(N)ccc21`, the solubility (kinetic) is > 34.4 µg/mL.

As to `CCC(C)(C)c1ccc(OCC(=O)Nc2ccncc2)cc1`, the kinetic solubility was 2.6 µg/mL (≈ 8.71 µM).

Consider `Cc1ccc2c(c1)N=C(c1ccccc1)CC(C(Cl)Cl)=N2`, for which the kinetic solubility was 7.1 µg/mL (≈ 22.4 µM).

With `Cc1cc(F)ccc1NS(=O)(=O)c1cccc2nsnc12`, the kinetic solubility was found to be 44.2 µg/mL (≈ 137 µM).

In the case of `COc1ccccc1-c1c(NC(=O)C(C)C)n(C)c2ccccc2c1=O`, the solubility (kinetic) is > 52.6 µg/mL.

With `Cc1ccc(F)cc1S(=O)(=O)NCc1ccc(N2CCN(C)CC2)cc1`, the kinetic solubility amounted to 16 µg/mL (≈ 42.4 µM).

Take `N#C/C(=C(/O)C(Cl)(Cl)Cl)c1nc2ccccc2[nH]1`: the solubility (kinetic) is 12.1 µg/mL (≈ 40 µM).

As to `Cc1ccc(C)c(N2CC(C(=O)O)CC2=O)c1` (configuration not stated), the solubility (kinetic) is > 35 µg/mL.

With `CC(C)CN(C(=O)C1CCCC1)C1CCS(=O)(=O)C1` (configuration not stated), the kinetic solubility is > 43.1 µg/mL.

Take `CCCCC(=O)Nc1cnc(NC(=O)c2cccs2)cc1C`: the solubility (kinetic) is > 47.6 µg/mL.

For the compound `O=C(N/C(=C/c1ccccc1Cl)C(=O)N1CCCC1)c1ccccc1`, the kinetic solubility is > 53.2 µg/mL.

For `CC(=O)N1CC(=O)Nc2ccc(Cl)cc2C1c1ccccc1` (configuration not stated), the solubility (kinetic) was > 47.2 µg/mL.

The compound `COc1ccc2cc(C(=O)NCc3ccccc3)[nH]c2c1.Cl` showed a solubility (kinetic) of 1 µg/mL.

Take `O=C(c1ccc([N+](=O)[O-])cc1)N1CCN(C(=O)c2ccco2)CC1`: the kinetic solubility was > 49.4 µg/mL.

Turning to `COc1cc2ncnc(NCc3ccccc3F)c2cc1OC`, the kinetic solubility was 41.8 µg/mL (≈ 133 µM).

Regarding `CCCn1c(N)c(C(=O)COC(=O)/C=C/c2ccc(OC(F)F)c(OC)c2)c(=O)[nH]c1=O`, the kinetic solubility is 9 µg/mL (≈ 19.9 µM).

Consider `COc1ccc([N+](=O)[O-])cc1NC(=O)COC(=O)C=C(C)C`, for which the kinetic solubility is 1.1 µg/mL (≈ 3.57 µM).

As to `O=C1CCCN1S(=O)(=O)c1ccc(F)cc1`, the kinetic solubility was > 36.5 µg/mL.

For the compound `Cc1sc(NC(=O)CCC(=O)O)c(C#N)c1C`, the solubility (kinetic) is > 37.8 µg/mL.

As for `[NH-]S(=O)(=O)c1ccccc1.[Na+]`, the kinetic solubility was > 26.9 µg/mL.

On to `O=C(Cn1ccc([N+](=O)[O-])n1)Nc1nc2ccccc2s1`, for which the kinetic solubility is > 45.5 µg/mL.
